pKi: −log10 of the molar value.
Biological target: Melanin-concentrating hormone receptor 1 (Homo sapiens, UniProt Q99705)
Assay: Antagonist activity at MCH1 receptor
Format: functional

Chain of Melanin-concentrating hormone receptor 1 (Q99705 whole entry): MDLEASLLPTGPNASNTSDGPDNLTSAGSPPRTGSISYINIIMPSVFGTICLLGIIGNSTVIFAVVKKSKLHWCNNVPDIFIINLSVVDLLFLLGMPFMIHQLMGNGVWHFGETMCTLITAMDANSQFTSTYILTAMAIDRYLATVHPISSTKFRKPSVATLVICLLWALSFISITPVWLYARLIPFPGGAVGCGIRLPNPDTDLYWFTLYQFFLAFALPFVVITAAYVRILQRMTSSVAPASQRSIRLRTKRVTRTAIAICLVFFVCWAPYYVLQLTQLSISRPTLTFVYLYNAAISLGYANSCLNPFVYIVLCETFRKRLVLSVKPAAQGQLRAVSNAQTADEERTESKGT

Compound | pKi
N#Cc1cccc([C@]23CCC(N(CCN4CC[C@@H](O)C4)C(=O)Nc4cccc(F)c4)CC2C3)c1 (stereo partly drawn) | 7.70
CNC(=O)N1CCC(CN(C(=O)Nc2ccc(F)c(C(F)(F)F)c2)C2CC[C@]3(c4cccc(C#N)c4)CC3C2)CC1 (stereo partly drawn) | 6.74
N#Cc1cccc([C@]23CCC(N(CCN4CCCC(O)C4)C(=O)Nc4ccc(F)c(Cl)c4)CC2C3)c1 (stereo partly drawn) | 7.66
CN(C)Cc1cccc([C@]23CCC(N(CC4CCN(S(C)(=O)=O)CC4)C(=O)Nc4cc(Cl)nc(Cl)c4)CC2C3)c1 (stereo partly drawn) | 8.48
CC(C)NCCN(C(=O)Nc1cc(Cl)nc(Cl)c1)C1CC[C@]2(c3cccc(C#N)c3)CC2C1 (stereo partly drawn) | 8.72
N#Cc1cccc([C@]23CCC(N(CCN4CC[C@@H](O)C4)C(=O)Nc4ccccc4)CC2C3)c1 (stereo partly drawn) | 6.88
CC1CC[C@@H](CO)N1CCN(C(=O)Nc1ccc(F)c(Cl)c1)C1CC[C@]2(c3cccc(C#N)c3)CC2C1 (stereo partly drawn) | 7.96
COC1CCN(CCN(C(=O)Nc2ccc(F)c(Cl)c2)C2CC[C@]3(c4cccc(C#N)c4)CC3C2)CC1 (stereo partly drawn) | 7.82
CC(=O)N1CCC(CN(C(=O)Nc2ccc(F)c(Cl)c2)C2CC[C@]3(c4cccc(C#N)c4)CC3C2)CC1 (stereo partly drawn) | 6.51
N#Cc1cccc([C@]23CCC(N(CCN4CC[C@@H](O)C4)C(=O)Nc4cc(F)cc(F)c4)CC2C3)c1 (stereo partly drawn) | 7.82
CCS(=O)(=O)N1CCC(CN(C(=O)Nc2ccc(F)c(F)c2)C2CC[C@]3(c4cccc(C#N)c4)CC3C2)CC1 (stereo partly drawn) | 7.68
CS(=O)(=O)N1CCC(CN(C(=O)Nc2cc(Cl)nc(Cl)c2)C2CC[C@]3(c4cccc(CN5CC[C@H](O)C5)c4)CC3C2)CC1 (stereo partly drawn) | 8.05
CS(=O)(=O)N1CCC(CN(C(=O)Nc2ccc(F)c(Cl)c2)C2CC[C@]3(c4cccc(C#N)c4)CC3C2)CC1 (stereo partly drawn) | 8.14
CC1CCC(C2=CCC(N(CCN3CCCC3)C(=O)Nc3ccc(F)c(Cl)c3)CC2)S1 (stereo not drawn) | 7.07
CS(=O)(=O)N1CCC(CN(C(=O)Nc2ccc(F)c(F)c2)C2CC[C@]3(c4cccc(C#N)c4)CC3C2)CC1 (stereo partly drawn) | 8.27
N#Cc1cccc([C@]23CCC(N(CCN4CC[C@@H](O)C4)C(=O)Nc4ccc(F)cc4)CC2C3)c1 (stereo partly drawn) | 7.27
C[N+]1(CCN(C(=O)Nc2ccc(F)c(Cl)c2)C2CC[C@]3(c4cccc(C#N)c4)CC3C2)CCCCC1 (stereo partly drawn) | 7.82
CS(=O)(=O)N1CCC(CN(C(=O)Nc2cccc(F)c2)C2CC[C@]3(c4cccc(C#N)c4)CC3C2)CC1 (stereo partly drawn) | 8.01
Cc1ccc(NC(=O)N(CCN2CC[C@@H](O)C2)C2CC[C@]3(c4cccc(C#N)c4)CC3C2)cc1F (stereo partly drawn) | 7.32

Compound | pKi
N#Cc1cccc([C@]23CCC(N(CCN4CC[C@@H](O)C4)C(=O)Nc4cccc([N+](=O)[O-])c4)CC2C3)c1 (stereo partly drawn) | 7.22
CC(C)N(CCO)CCN(C(=O)Nc1cc(Cl)nc(Cl)c1)C1CC[C@]2(c3cccc(C#N)c3)CC2C1 (stereo partly drawn) | 8.80
N#Cc1cccc([C@]23CCC(N(CCN4CC[C@@H](O)C4)C(=O)Nc4cccc(Cl)c4)CC2C3)c1 (stereo partly drawn) | 7.57
N#Cc1cccc(NC(=O)N(CCN2CC[C@@H](O)C2)C2CC[C@]3(c4cccc(C#N)c4)CC3C2)c1 (stereo partly drawn) | 7.04
N#Cc1cccc([C@]23CCC(N(CCNCCF)C(=O)Nc4cc(Cl)nc(Cl)c4)CC2C3)c1 (stereo partly drawn) | 8.36
CS(=O)(=O)N1CCC(CN(C(=O)Nc2ccc(F)c(C(F)(F)F)c2)C2CC[C@]3(c4cccc(C#N)c4)CC3C2)CC1 (stereo partly drawn) | 7.58
N#Cc1cccc([C@]23CCC(N(CCN4CC[C@@H](O)C4)C(=O)Nc4ccc(OCOc5ccccc5)c(OCOc5ccccc5)c4)CC2C3)c1 (stereo partly drawn) | 6.87
N#Cc1cccc([C@]23CCC(N(CCN4CC[C@@H](O)C4)C(=O)Nc4cccc(Br)c4)CC2C3)c1 (stereo partly drawn) | 7.47
N#Cc1cccc([C@]23CCC(N(CCN4CC[C@@H](O)C4)C(=O)Nc4ccc(F)c(F)c4)CC2C3)c1 (stereo partly drawn) | 7.70
N#Cc1cccc([C@]23CCC(N(CCN4CCOCC4)C(=O)Nc4ccc(F)c(Cl)c4)CC2C3)c1 (stereo partly drawn) | 7.96
CS(=O)(=O)N1CCCC(CN(C(=O)Nc2ccc(F)c(Cl)c2)C2CC[C@]3(c4cccc(C#N)c4)CC3C2)C1 (stereo partly drawn) | 6.68
CC(=O)C1CCCN1CCN(C(=O)Nc1ccc(F)c(Cl)c1)C1CC[C@]2(c3cccc(C#N)c3)CC2C1 (stereo partly drawn) | 7.64
CC1CC[C@@H](CO)N1CCN(C(=O)Nc1cc(Cl)nc(Cl)c1)C1CC[C@]2(c3cccc(C#N)c3)CC2C1 (stereo partly drawn) | 8.92
CS(=O)(=O)N1CCCCC1CN(C(=O)Nc1ccc(F)c(Cl)c1)C1CC[C@]2(c3cccc(C#N)c3)CC2C1 (stereo partly drawn) | 6.53
CC(=O)C1CCC(C2=CCC(N(CCN3CCCC3)C(=O)Nc3ccc(F)c(Cl)c3)CC2)S1 (stereo not drawn) | 7.51
CS(=O)(=O)N1CCC(CCN(C(=O)Nc2ccc(F)c(C(F)(F)F)c2)C2CC[C@]3(c4cccc(C#N)c4)CC3C2)CC1 (stereo partly drawn) | 7.10
COc1cccc(NC(=O)N(CCN2CC[C@@H](O)C2)C2CC[C@]3(c4cccc(C#N)c4)CC3C2)c1 (stereo partly drawn) | 6.43
N#Cc1cccc([C@]23CCC(N(CCN4CCCCCC4)C(=O)Nc4ccc(F)c(Cl)c4)CC2C3)c1 (stereo partly drawn) | 7.82

Next, values leading:

pKi | Compound
8.80 | CC(C)N(CCN(C(=O)Nc1cc(Cl)nc(Cl)c1)C1CC[C@]2(c3cccc(C#N)c3)CC2C1)[C@@H](C)CO (stereo partly drawn)
7.80 | C[N+]1(CCN(C(=O)Nc2ccc(F)c(Cl)c2)C2CC[C@]3(c4cccc(C#N)c4)CC3C2)CCCC1 (stereo partly drawn)
7.98 | CC(C)N(CCN(C(=O)Nc1ccc(F)cc1)C1CC[C@]2(c3cccc(C#N)c3)CC2C1)C(C)C (stereo partly drawn)
7.32 | CC(C)N(CCN(C(=O)Nc1ccc(F)c(Cl)c1)C1CC[C@]2(c3cccc(CO)c3)CC2C1)C(C)C (stereo partly drawn)
8.11 | CC(C)N(CCN(C(=O)Nc1ccc(F)c(F)c1)C1CC[C@]2(c3cccc(Br)c3)CC2C1)C(C)C (stereo partly drawn)
8.03 | CC(C)N(CCN(C(=O)Nc1ccc(F)c(Cl)c1)C1CC[C@]2(c3cccc(C#N)c3)CC2C1)[C@H](C)CO (stereo partly drawn)
7.54 | CCO/N=C/c1cccc([C@]23CCC(N(CCN(C(C)C)C(C)C)C(=O)Nc4ccc(F)c(Cl)c4)CC2C3)c1 (stereo partly drawn)
7.92 | CC(C)N(CCF)CCN(C(=O)Nc1ccc(F)c(Cl)c1)C1CC[C@]2(c3cccc(C#N)c3)CC2C1 (stereo partly drawn)
8.24 | CC(C)N(CCN(C(=O)Nc1cccc(Br)c1)C1CC[C@]2(c3cccc(C#N)c3)CC2C1)C(C)C (stereo partly drawn)
8.22 | CC(C)N(CCN(C(=O)Nc1cccc(Cl)c1)C1CC[C@]2(c3cccc(C#N)c3)CC2C1)C(C)C (stereo partly drawn)
7.51 | CC(=O)NCc1cccc([C@]23CCC(N(CCN(C(C)C)C(C)C)C(=O)Nc4ccc(F)c(Cl)c4)CC2C3)c1 (stereo partly drawn)
8.68 | CC(C)N(CCN(C(=O)Nc1cccc(F)c1)C1CC[C@]2(c3cccc(C#N)c3)CC2C1)C(C)C (stereo partly drawn)
8.12 | CC(C)N(CCN(C(=O)Nc1cccc(C#N)c1)C1CC[C@]2(c3cccc(C#N)c3)CC2C1)C(C)C (stereo partly drawn)
7.34 | CCN(CC)Cc1cccc([C@]23CCC(N(CCN(C(C)C)C(C)C)C(=O)Nc4ccc(F)c(Cl)c4)CC2C3)c1 (stereo partly drawn)
7.27 | CC(C)N(CCN(C(=O)Nc1ccc(F)c(Cl)c1)C1CC[C@]2(c3cccc(CN4CCN(C)CC4)c3)CC2C1)C(C)C (stereo partly drawn)
7.75 | CC(C)N(CCN(C(=O)Nc1ccc(F)c(Cl)c1)C1CC[C@]2(c3cccc(CNS(C)(=O)=O)c3)CC2C1)C(C)C (stereo partly drawn)
8.57 | CC(C)N(CCN(C(=O)Nc1cccc([N+](=O)[O-])c1)C1CC[C@]2(c3cccc(C#N)c3)CC2C1)C(C)C (stereo partly drawn)
8.62 | CC(C)N(CCN(C(=O)Nc1cc(Cl)nc(Cl)c1)C1CC[C@]2(c3cccc(C#N)c3)CC2C1)C(C)C (stereo partly drawn)
8.39 | CO/N=C/c1cccc([C@]23CCC(N(CCN(C(C)C)C(C)C)C(=O)Nc4ccc(F)c(Cl)c4)CC2C3)c1 (stereo partly drawn)
7.89 | CC(C)N(CCN(C(=O)Nc1ccc(F)c(Cl)c1)C1CC[C@]2(c3cccc(CN(C)C)c3)CC2C1)C(C)C (stereo partly drawn)
8.30 | CC(C)N(CCN(C(=O)Nc1ccc(F)c(Cl)c1)C1CC[C@]2(c3cccc(C#N)c3)CC2C1)C(C)C (stereo partly drawn)
7.82 | CN(C)Cc1cccc([C@]23CCC(N(CC4CCN(S(C)(=O)=O)CC4)C(=O)Nc4ccc(F)c(Cl)c4)CC2C3)c1 (stereo partly drawn)
8.35 | CC(C)N(CCN(C(=O)Nc1cc(F)cc(F)c1)C1CC[C@]2(c3cccc(C#N)c3)CC2C1)C(C)C (stereo partly drawn)
8.06 | CC(C)N(CCO)CCN(C(=O)Nc1ccc(F)c(Cl)c1)C1CC[C@]2(c3cccc(C#N)c3)CC2C1 (stereo partly drawn)
8.28 | CC(C)N(CCN(C(=O)Nc1ccc(F)c(Cl)c1)C1CC[C@]2(c3cccc(C#N)c3)CC2C1)[C@@H](C)CO (stereo partly drawn)
7.68 | CC(C)N(CCN(C(=O)Nc1ccc(F)c(Cl)c1)C1CC[C@]2(c3cccc(CN4CC[C@H](O)C4)c3)CC2C1)C(C)C (stereo partly drawn)

From ChEMBL document CHEMBL1250483, “Three-dimensional quantitative structure-activity relationship CoMSIA/CoMFA and LeapFrog studies on novel series of bicyclo [4.1.0] heptanes derivatives as melanin-concentrating hormone receptor R1 antagonists” (Eur J Med Chem, 2010)
